Measured values taken from patent US4661516A, “Diaminocyclohexane platinum complexes” (Research Corporation, priority 1984, dated 1987).
Like-named read-outs stand apart in the source and are kept apart here.

Assays:
[1] = system: L1210/PDD; type: in vivo, BDF1 mice; conditions: days 1,5,9
Experimental: (§1) The anti-tumor activity of compound number 3 was evaluated against cells sensitive to (L1210/0) and resistant to (L1210/PDD) the standard platinum complex cis-diamminedichloroplatinum(II).

[2] = system: L1210 cells; assay: In vivo anti-tumor activity, L1210, single i.p. injection; parameters: species or system BDF1 mice; conditions: for Maximal Effective Dose: single i.p. injection
Experimental: About 24 hours after inoculation of the cells, the mice were injected intraperitoneally with varying dosages of complexes of the present invention. […] Long term survival signifies that animals were alive 60 days after inoculation with L1210 cells.

[3] = system: L1210 leukemia cells (L1210/PDD); assay: In vitro cytotoxicity / cross-resistance, L1210/PDD (L1210/DDP) cells resistant to cisdiamminedichloroplatinum(II); type: cell-based; conditions: for ID50 L1210/DDP: Tables VII and VIII, 5760 min; for ID50 L1210/PDD: 96 hours
Experimental: Four ml of cell suspension were added to culture tubes and the appropriate concentration (0.01, 0.1, 1 or 10 μg/ml final drug concentration) was added. After 96 hours the cell concentration of control and experimental cultures were calculated with the aid of a Coulter Counter® Model ZBf and the percent inhibition calculated.

[4] = system: L1210/0 leukemia cells; assay: In vivo anti-tumor activity, L1210 (L1210/0), multiple i.p. doses; parameters: species or system BDF1 mice; conditions: for Maximal Effective Dose: i.p. on days 1, 5 and 9; for LTS: survivors/treated 50 days after treatment
Experimental: BDF1 mice were inoculated intraperitoneally with 10^6 L1210 cells. About 24 hours after inoculation of the cells, the mice were injected intraperitoneally with varying dosages of complexes of the present invention. Six mice were used for each dosage level in each experiment with an equal number of control mice inoculated with 10^6 L1210 cells and left untreated with a given complex. The results [%T/C=(survival time of treated animals/survival time of control animals)×100] are set forth below. Long term survival signifies that animals were alive 60 days after inoculation with L1210 cells.
The procedure of Example 16 was repeated except that the treated animals were injected with multiple doses of the complex as indicated below:
as §1
The following complexes were tested in vivo oncolytic activity following 3 i.p. injections (days 1, 5, 9) according to the protocol described in Examples 16 and 17.
BDF1 mice were innoculated intraperitoreally with 10^6 L1210 leukemia cells and treatment was begun on the next day (day 1). Two treatment schedules, i.e. single i.p. injection of the drug and i.p. injections on days 1, 5 and 9 according to the protocol described in Examples 16 and 17 were used.

[5] = system: Wild type L1210 leukemic cells; assay: In vitro cytotoxicity, wild type L1210 leukemic cells (L1210/0); type: cell-based; conditions: for ID50: L1210, 72 hours incubation; for ID50 L1210/0: L1210/0, protocol of Example 14, Tables VII and VIII, 4320 min
Experimental: Four ml of cell suspension (10^5 cells/ml) are added to culture tubes and the appropriate concentration (0.01, 0.1, 1 or 10 μg/ml final concentration) of drug added to the culture tubes. After 72 hours of incubation, the cell concentration of control and experimental cultures are determined with the aid of a Coulter Counter® Model ZBf and the percent inhibition calculated. […]

[6] = system: Male albino mice; assay: Acute toxicity, single intraperitoneal injection (Example 19); type: in vivo; conditions: single i.p.; for Calculated LD10 / Calculated LD50 / Calculated LD90: 14 days
Experimental: Fourteen days after treatment all surviving mice were sacrified and the LD10, LD50 and LD90 were calculated.

[7] = BUN (RUN [sic]) with the acute lethality data (Table XIII); type: in vivo; conditions: mean + 1 S.D.
[8] = Acute lethality, single intraperitoneal injection (Table XIII); type: in vivo
[9] = system: B16 cells; assay: Melanotic melanoma test, i.p. inoculated B16 melanoma; type: in vivo, BDF1 mice; conditions: for Maximal Effective Dose: B16, i.p. days 1, 5 and 9; for % T/C / Long Term Survivors: B16, i.p. days 1, 5 and 9, at maximal effective dose; for Long Term Survivors: 60 days
Experimental: The animals used were BDF1 mice, all of the same sex, weighing a minimum of 18 g. and all within a 4 g. weight range. There were 6 animals per test group. […] The test compounds were administered intraperitoneally on days 1, 5 and 9 at various doses. The animals were weighed and survivors were recorded on a regular basis for 60 days. The median survival time and the ratio of survival time for treated (T)/control (C) animals were calculated. […] The criterion for efficacy is T/C×100≥125%.

[10] = Example 18, L1210/0, 25 mg/kg, days 1,5,9
[11] = Example 18, L1210/0, 50 mg/kg, days 1,5,9
[12] = Table IX, single i.p., at maximal effective dose
[13] = Tables X and XI, days 1, 5 and 9, at maximal effective dose, alive 60 days after tumor inoculation
[14] = Tables X and XI, i.p. on days 1, 5 and 9, at maximal effective dose
[15] = 6.25 mg/kg i.p., days 1, 5, 9, 30 day observation period
[16] = 12.5 mg/kg i.p., days 1, 5, 9, 30 day observation period
[17] = 25 mg/kg i.p., days 1, 5, 9, 30 day observation period

NC1CCCCC1N.O.O=C1OC(C(O)CO)C([O-])=C1O.O=C1OC(C(O)CO)C([O-])=C1O.[Pt+2] (stereo not drawn) [Compound 3, cis-bis-ascorbato(DACH)Pt(II).1H2 O]
% T/C ([1]; 6.25 mg/kg): 115% | % T/C ([1]; 12.5 mg/kg): 124% | % T/C ([1]; 25 mg/kg): 135% | % T/C ([1]; 50 mg/kg): 223% | SURVIVORS ([1]; 50 mg/kg): 3/10 | % T/C ([1]; 100 mg/kg): 172% | % T/C ([2]; single i.p., 50 mg/kg): 125% | % T/C ([2]; single i.p., 60 mg/kg): 163% | % T/C ([2]; single i.p., 75 mg/kg): 143% | % T/C ([2]; single i.p., 90 mg/kg): 145% | % T/C ([2]; single i.p., 100 mg/kg): Toxic | ID50 L1210/DDP [3]: 5.0 µg/mL | ID50 L1210/PDD [3]: 2.6 µg/mL | % T/C ([4]; 5 mg/kg, days 1-9): 142% | % T/C ([4]; 10 mg/kg, days 1,5,9): 123% | % T/C ([4]; 10 mg/kg, days 1-9): 184% | % T/C ([4]; 20 mg/kg, days 1,5,9): 196% | Long Term Survivors ([4]; 20 mg/kg, days 1,5,9): 1/6 | % T/C ([4]; 20 mg/kg, days 1-9): 239% | Long Term Survivors ([4]; 20 mg/kg, days 1-9): 1/6 | % T/C ([4]; 25 mg/kg, days 1,5,9): 176% | % T/C ([4]; 30 mg/kg, days 1,5,9): 257% | Long Term Survivors ([4]; 30 mg/kg, days 1,5,9): 1/6 | % T/C ([4]; 30 mg/kg, days 1,5,9,13): 273% | Long Term Survivors ([4]; 30 mg/kg, days 1,5,9,13): 1/6 | % T/C ([4]; Example 18, L1210/0, 6.25 mg/kg, days 1,5,9): 117% | % T/C ([4]; Example 18, L1210/0, 12.5 mg/kg, days 1,5,9): 135% | % T/C [4, 10]: 181% | SURVIVORS [4, 10]: 2/10 | % T/C [4, 11]: 247% | SURVIVORS [4, 11]: 1/10 | % T/C ([4]; Example 18, L1210/0, 100 mg/kg, days 1,5,9): 104% | ID50 [5]: 5.0 µg/mL | DEATHS/TREATED ([6]; 110 mg/kg): 1/6 | DEATHS/TREATED ([6]; 125 mg/kg): 2/6 | DEATHS/TREATED ([6]; 140 mg/kg): 4/6 | DEATHS/TREATED ([6]; 175 mg/kg): 6/6 | Calculated LD10 [6]: 108 mg/kg | Calculated LD50 [6]: 125 mg/kg | Calculated LD90 [6]: 150 mg/kg

O.O.O=C([O-])C[N-]CC(=O)O.[NH-]C1CCCCC1[NH-].[Pt] [Compound 11, iminodiacetato(DACH)Pt(II).2H2 O]
RUN [7]: 23 ± 4 mg/100 ml | Maximal Effective Dose ([2]; Table IX): 50 mg/kg | % T/C [2, 12]: 163% | % T/C ([2]; single i.p., 50 mg/kg): 163% | % T/C ([2]; single i.p., 100 mg/kg): 109% | toxicity remark ([2]; single i.p., 100 mg/kg): Apparent Toxicity | LD10 [8]: 53 mg/kg | LD50 [8]: 107 mg/kg | LD90 [8]: 169 mg/kg | ID50 L1210/PDD [3]: 1.6 µg/mL | % T/C ([4]; 25 mg/kg, days 1,5,9): 199% | % T/C ([4]; 50 mg/kg, days 1,5,9): 220% | Long Term Survivors ([4]; 50 mg/kg, days 1,5,9): 2/6 | Long Term Survivors [4, 13]: 2/6 | Maximal Effective Dose ([4]; Tables X and XI): 50 mg/kg | % T/C [4, 14]: 220% | ID50 [5]: 4.2 µg/mL | DEATHS/TREATED ([6]; 85 mg/kg): 1/6 | DEATHS/TREATED ([6]; 100 mg/kg): 3/6 | DEATHS/TREATED ([6]; 125 mg/kg): 5/6 | DEATHS/TREATED ([6]; 158 mg/kg): 4/6 | DEATHS/TREATED ([6]; 200 mg/kg): 6/6 | Calculated LD10 [6]: 80 mg/kg | Calculated LD50 [6]: 115 mg/kg | Calculated LD90 [6]: 155 mg/kg

CN(CC(=O)[O-])CC(=O)[O-].NC1CCCCC1N.O.[Pt+2] [Compound 28, N--Methyliminodiacetato(DACH)Pt(II).1H2 O]
Maximal Effective Dose [9]: 25 mg/kg | % T/C [9]: 205% | Long Term Survivors [9]: 0/6 | RUN [7]: 22 ± 3 mg/100 ml | Maximal Effective Dose ([2]; Table IX): 25 mg/kg | % T/C [2, 12]: 180% | % T/C ([2]; single i.p., 12.5 mg/kg): 161% | % T/C ([2]; single i.p., 25 mg/kg): 185% | % T/C ([2]; single i.p., 50 mg/kg): Toxic | LD10 [8]: 49 mg/kg | LD50 [8]: 92 mg/kg | LD90 [8]: 170 mg/kg | ID50 L1210/DDP [3]: 1.3 µg/mL | Long Term Survivors [4, 13]: 5/6 | Maximal Effective Dose ([4]; Tables X and XI): 12.5 mg/kg | % T/C [4, 14]: 550% | ID50 [5]: 1.6 µg/mL

NC1CCCCC1N.O.O.O=C([O-])CN(CC(=O)[O-])c1ccccc1.[Pt+2] [Compound 37, N--Phenyliminodiacetato(DACH)Pt(II).2H2 O]
Maximal Effective Dose [9]: 25 mg/kg | % T/C [9]: 215% | Long Term Survivors [9]: 0/6 | RUN [7]: 18 ± 1 mg/100 ml | Maximal Effective Dose ([2]; Table IX): 12.5 mg/kg | % T/C [2, 12]: 172% | % T/C ([2]; single i.p., 12.5 mg/kg): 172% | % T/C ([2]; single i.p., 25 mg/kg): 156% | % T/C ([2]; single i.p., 50 mg/kg): 108% | LD10 [8]: 56 mg/kg | LD50 [8]: 81 mg/kg | LD90 [8]: 135 mg/kg | ID50 L1210/DDP [3]: 2.6 µg/mL | % T/C [4, 15]: 246% | LTS ([4]; 6.25 mg/kg, days 1, 5, 9): 3/6 | % T/C [4, 16]: 298% | LTS ([4]; 12.5 mg/kg, days 1, 5, 9): 5/6 | % T/C [4, 17]: 242% | LTS ([4]; 25 mg/kg, days 1, 5, 9): 1/6 | Long Term Survivors [4, 13]: 4/6 | Maximal Effective Dose ([4]; Tables X and XI): 12.5 mg/kg | % T/C [4, 14]: 537% | ID50 [5]: 1.0 µg/mL | ID50 L1210/0 [5]: 2.3 µg/mL

NC1CCCCC1N.O=C([O-])CN(CC(=O)[O-])Cc1ccccc1.[Pt+2] [Compound 38, N--Benzyliminodiacetato(DACH)Pt(II)]
Maximal Effective Dose [9]: 12.5 mg/kg | % T/C [9]: 207% | Long Term Survivors [9]: 1/6 | RUN [7]: 27 ± 3 mg/100 ml | Maximal Effective Dose ([2]; Table IX): 25 mg/kg | % T/C [2, 12]: 170% | % T/C ([2]; single i.p., 12.5 mg/kg): 123% | % T/C ([2]; single i.p., 25 mg/kg): 170% | % T/C ([2]; single i.p., 50 mg/kg): 158% | LD10 [8]: 81 mg/kg | LD50 [8]: 140 mg/kg | LD90 [8]: 210 mg/kg | ID50 L1210/DDP [3]: 0.8 µg/mL | % T/C [4, 15]: 277% | % T/C [4, 16]: 287% | LTS ([4]; 12.5 mg/kg, days 1, 5, 9): 1/6 | % T/C [4, 17]: 240% | LTS ([4]; 25 mg/kg, days 1, 5, 9): 2/6 | Long Term Survivors [4, 13]: 2/6 | Maximal Effective Dose ([4]; Tables X and XI): 12.5 mg/kg | % T/C [4, 14]: 397% | ID50 [5]: 2.3 µg/mL | ID50 L1210/0 [5]: 1.0 µg/mL

NC1CCCCC1N.O.O.O=C([O-])CN(CCO)CC(=O)[O-].[Pt+2] [Compound 39, N--(2-Hydroxyethyl)-iminodiacetato(DACH)Pt(II).2H2 O]
Maximal Effective Dose [9]: 25 mg/kg | % T/C [9]: 196% | Long Term Survivors [9]: 2/6 | RUN [7]: 18 ± 2 mg/100 ml | Maximal Effective Dose ([2]; Table IX): 25 mg/kg | % T/C [2, 12]: 180% | LD10 [8]: 63 mg/kg | LD50 [8]: 150 mg/kg | LD90 [8]: 301 mg/kg | ID50 L1210/DDP [3]: 0.9 µg/mL | Long Term Survivors [4, 13]: 4/6 | Maximal Effective Dose ([4]; Tables X and XI): 25 mg/kg | % T/C [4, 14]: 450% | ID50 [5]: 3.0 µg/mL | ID50 L1210/0 [5]: 0.7 µg/mL
